Where “and” joins values, the source holds several entries; their conditions need not be identical. Identical values can stand only once.
Tests used:
Type in all cases: cell-based, C. elegans
[1] = biological target: LGC-52 (Caenorhabditis elegans, UniProt Q9NA62); test: Two-electrode voltage clamp, agonist-evoked currents in Xenopus oocytes expressing LGC-52; details: for EC50: Xenopus oocytes, TEVC, current normalized to Imax, Hill equation with variable slope, read-out: EC50, agonist-evoked dose response, LGC-52; for Channel activation in ligand screen, LGC-52: ligands screened at 100 μM, oocytes clamped at −60 mV
LGC-52, sequence (Q9NA62 entry or part of it): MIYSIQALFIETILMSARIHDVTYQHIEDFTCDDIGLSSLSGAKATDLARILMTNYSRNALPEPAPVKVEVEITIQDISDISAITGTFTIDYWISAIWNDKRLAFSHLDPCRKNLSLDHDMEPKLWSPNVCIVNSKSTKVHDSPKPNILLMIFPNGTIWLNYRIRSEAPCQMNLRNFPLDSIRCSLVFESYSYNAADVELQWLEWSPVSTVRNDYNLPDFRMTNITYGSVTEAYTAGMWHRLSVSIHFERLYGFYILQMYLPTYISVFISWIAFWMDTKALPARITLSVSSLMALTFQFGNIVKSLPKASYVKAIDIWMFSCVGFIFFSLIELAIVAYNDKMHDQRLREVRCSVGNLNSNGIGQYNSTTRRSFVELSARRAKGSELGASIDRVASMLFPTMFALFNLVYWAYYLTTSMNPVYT
From the text: (§1) We aimed to deorphanize C. elegans LGICs without known ligands, focusing on 5 genes in the putative monoamine-gated group: lgc-50; lgc-51; lgc-52; lgc-54; and lgc-56 (previously named ggr-3). Using heterologous overexpression in Xenopus oocytes and two-electrode voltage clamp recordings, we measured channel activity evoked by application of 11 monoamines and other neurotransmitters.
(§2) Defolliculated Xenopus laevis oocytes were obtained from EcoCyte Bioscience (Dortmund, Germany) and maintained in ND96 (in mM: 96 NaCl, 1 MgCl2, 5 HEPES, 1.8 CaCl2, 2 KCl) solution at 16°C for 3-5 days.
(§3) 5'-capped cRNA was synthesized in vitro using the T3 mMessage mMachine transcription kit according to manufacturer’s protocol (Thermo Fischer Scientific, CA, USA). RNA was then purified using the GeneJET RNA purification kit (Thermo Fischer Scientific, CA, USA) prior to cRNA injection. Defolliculated Xenopus oocytes were placed individually into 96 well plates and injected with 50nL of 500ng/μL RNA using the Roboinject system (Multi Channel Systems GmbH, Reutlingen, Germany). When two constructs were injected the total RNA concentration remained 500ng/μL, with a 1:1 ratio of the components. Injected oocytes were incubated at 16°C in ND96 until the day of recording, typically between 3-5 days post injection.
(§4) Two-electrode voltage clamp recordings were carried out using the Robocyte2 recording system or a manual TEVC set up, using an OC-725D amplifier (Multi Channel Systems, Reutlingen, Germany) and paired with a custom-made recording chamber and agar bridges from reference and bath electrodes. Glass electrodes were pulled on a P-1000 Micropipette Puller (Sutter, Ca, USA) with a resistance ranging from 0.7-2 MΩ, pipettes, containing AgCl wires, were backfilled with a 3 M KCl solution for manual recordings and 1.5M KCl and 1 M acetic acid for Robocyte2 recordings. Oocytes were clamped at −60mV unless stated otherwise. Continuous recordings were taken during application of agonists and antagonists at 500 Hz. Data was recorded using WinWCP or RoboCyte2 control software, manual data was filtered at 10 Hz.
(§5) Dose response curves were calculated from the peak current during a 10 s agonist stimulation in ND96 solution, with a 60 s ND96 wash in between doses. Data was gathered over at least two occasions, using different batches of oocytes. Normalized dose response data was fitted to a nonlinear curve using a four parameters variable slope and the EC50 and Hill slope was calculated. All further recordings were carried out with the agonist at its EC50 concentration unless stated otherwise. Ion selectivity was determined using a voltage ramp protocol of 20mV/s ranging from −80mV to +60mV in the presence or absence of the primary agonist in three different solutions: ND96, NMDG (Na^+ free) and Na Gluconate (low Cl^-) solutions. Normalized ramp curves were fitted to a linear regression line and the x intercept was compared between solutions to calculate an average Erev from 4-5 oocytes. Antagonist dose response curves were calculated from the peak current during a 10 s agonist + antagonist stimulation in ND96 solution, with the agonist concentration remaining constant. Repeated agonist stimulus protocols were carried out by measuring the peak current during a 10 s agonist stimulation at three wash intervals, 10 s, 30 s and 60 s. Kinetic measurements were calculated from a 60 s agonist perfusion. […]

[2] = biological target: T1, LGC-51/52 (Caenorhabditis elegans, UniProt Q9NA62+X5LVB0); test: Two-electrode voltage clamp, agonist-evoked currents in Xenopus oocytes co-expressing LGC-51 and LGC-52; details: for Agonist-induced peak current of LGC-51/52 heteromer compared with LGC-52: 1 mM TYR or DA; for EC50: Xenopus oocytes co-expressing LGC-51 and LGC-52, TEVC, Hill equation with variable slope, read-out: EC50, agonist-evoked dose response, LGC-51/52 heteromer
T1 sequence (X5LVB0 entry or part of it): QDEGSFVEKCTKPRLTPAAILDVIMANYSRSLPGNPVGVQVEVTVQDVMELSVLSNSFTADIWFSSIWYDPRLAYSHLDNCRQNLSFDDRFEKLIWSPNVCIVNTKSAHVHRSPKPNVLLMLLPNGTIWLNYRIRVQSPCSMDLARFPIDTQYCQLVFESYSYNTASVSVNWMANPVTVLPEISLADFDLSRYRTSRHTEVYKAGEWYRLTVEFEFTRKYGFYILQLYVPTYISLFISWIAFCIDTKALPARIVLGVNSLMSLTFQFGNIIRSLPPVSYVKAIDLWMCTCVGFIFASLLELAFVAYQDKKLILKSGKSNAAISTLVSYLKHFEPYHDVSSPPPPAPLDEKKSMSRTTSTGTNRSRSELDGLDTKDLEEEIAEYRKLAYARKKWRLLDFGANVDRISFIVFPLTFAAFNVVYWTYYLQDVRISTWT
T1 sequence (Q9NA62 entry or part of it): as the sequence (Q9NA62 entry or part of it) above
Description: as §2, §3, §4
as §5, with “Normalized ramp curves were fitted to a linear regression line and the x intercept was compared between solutions to calculate an average Erev from 4-5 oocytes.” left out, “Repeated agonist stimulus protocols were carried out by measuring the peak current during a 10 s agonist stimulation at three wash intervals, 10 s, 30 s and 60 s.” left out

[3] = biological target: T2, LGC-56 (Caenorhabditis elegans, UniProt Q10052); test: Two-electrode voltage clamp, agonist-evoked currents in Xenopus oocytes expressing LGC-56; details: for EC50: Xenopus oocytes, TEVC, current normalized to Imax, Hill equation with variable slope, read-out: EC50, agonist-evoked dose response, LGC-56; for Channel activation in ligand screen, LGC-56: ligands screened at 100 μM, oocytes clamped at −60 mV
T2 sequence (Q10052 entry or part of it): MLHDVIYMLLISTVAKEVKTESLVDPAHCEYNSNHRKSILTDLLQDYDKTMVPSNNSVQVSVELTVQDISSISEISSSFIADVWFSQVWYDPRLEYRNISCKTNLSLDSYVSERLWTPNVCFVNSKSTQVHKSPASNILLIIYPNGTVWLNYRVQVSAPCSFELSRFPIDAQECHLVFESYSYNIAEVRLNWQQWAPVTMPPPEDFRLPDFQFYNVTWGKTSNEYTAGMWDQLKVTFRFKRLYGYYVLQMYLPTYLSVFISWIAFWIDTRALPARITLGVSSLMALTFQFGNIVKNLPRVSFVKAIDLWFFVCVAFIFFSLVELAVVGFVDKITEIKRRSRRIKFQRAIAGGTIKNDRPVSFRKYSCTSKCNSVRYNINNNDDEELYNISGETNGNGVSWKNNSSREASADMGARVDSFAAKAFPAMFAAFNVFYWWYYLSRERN
From the text: as §1, §2, §3, §4, §5

[4] = biological target: T3, LGC-54 (Caenorhabditis elegans, UniProt O17041); test: Two-electrode voltage clamp, agonist-evoked currents in Xenopus oocytes expressing LGC-54; details: for EC50: Xenopus oocytes, TEVC, current normalized to Imax, Hill equation with variable slope, read-out: EC50, agonist-evoked dose response, LGC-54; for Channel activation in ligand screen, LGC-54: ligands screened at 100 μM, oocytes clamped at −60 mV
T3 sequence (O17041 entry or part of it): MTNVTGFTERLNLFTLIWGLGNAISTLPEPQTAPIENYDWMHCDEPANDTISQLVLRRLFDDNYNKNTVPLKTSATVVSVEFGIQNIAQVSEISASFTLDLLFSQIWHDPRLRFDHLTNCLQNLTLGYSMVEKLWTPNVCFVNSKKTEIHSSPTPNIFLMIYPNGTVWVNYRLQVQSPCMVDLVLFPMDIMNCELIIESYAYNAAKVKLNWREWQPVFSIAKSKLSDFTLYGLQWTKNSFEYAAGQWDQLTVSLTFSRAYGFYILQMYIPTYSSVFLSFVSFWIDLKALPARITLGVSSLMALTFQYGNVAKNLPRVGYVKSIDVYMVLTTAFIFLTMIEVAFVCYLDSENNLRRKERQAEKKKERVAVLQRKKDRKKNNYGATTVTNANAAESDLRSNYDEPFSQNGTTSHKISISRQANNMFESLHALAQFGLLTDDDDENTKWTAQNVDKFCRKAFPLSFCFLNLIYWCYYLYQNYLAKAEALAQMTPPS
From the text: as §1, §2, §3, §4
(§6) Dose response curves were calculated from the peak current during a 10 s agonist stimulation in ND96 solution, with a 60 s ND96 wash in between doses. Data was gathered over at least two occasions, using different batches of oocytes. Normalized dose response data was fitted to a nonlinear curve using a four parameters variable slope and the EC50 and Hill slope was calculated. All further recordings were carried out with the agonist at its EC50 concentration unless stated otherwise. Ion selectivity was determined using a voltage ramp protocol of 20mV/s ranging from −80mV to +60mV in the presence or absence of the primary agonist in three different solutions: ND96, NMDG (Na^+ free) and Na Gluconate (low Cl^-) solutions. Normalized ramp curves were fitted to a linear regression line and the x intercept was compared between solutions to calculate an average Erev from 4-5 oocytes. Antagonist dose response curves were calculated from the peak current during a 10 s agonist + antagonist stimulation in ND96 solution, with the agonist concentration remaining constant. Repeated agonist stimulus protocols were carried out by measuring the peak current during a 10 s agonist stimulation at three wash intervals, 10 s, 30 s and 60 s. Kinetic measurements were calculated from a 60 s agonist perfusion. Python scripts for TEVC analysis can be found at on GitHub at hiris25/TEVC-analysis-scripts and on Zenodo https://doi.org/10.5281/zenodo.5095181.
Dose response and antagonist response curves were generated using custom-built python scripts (key resources table), which combined data from multiple recordings and normalized data by calculating I/Imax for each oocyte.

[5] = biological target: T2, LGC-56; test: Two-electrode voltage clamp, antagonist inhibitory dose response in Xenopus oocytes expressing LGC-56; details: for IC50: Xenopus oocytes, TEVC, agonist constant at its EC50, Hill equation, three-parameter slope; for Block of LGC-56 currents by antagonist: agonist at EC50
Description: (§7) We also investigated the antagonist profiles of three potential antagonists: mecamylamine; spiperone; and picrotoxin. These antagonists target different binding sites and have different specificity for vertebrate receptors.
as §2, §3, §4, §6
(§8) Dose response and antagonist response curves were generated using custom-built python scripts (key resources table), which combined data from multiple recordings and normalized data by calculating I/Imax for each oocyte. Normalized mean, SD and n numbers where then imported into GraphPad where data was plotted and EC50 or IC50 values were calculated by fitting to the Hill equation using either three or four parameter slopes to obtain the highest degree of fit.

[6] = biological target: T3, LGC-54; test: Two-electrode voltage clamp, antagonist inhibitory dose response in Xenopus oocytes expressing LGC-54; details: for IC50: Xenopus oocytes, TEVC, agonist constant at its EC50, Hill equation, three-parameter slope; for Block of LGC-54 currents by antagonist: agonist at EC50
Description: as §7, §2, §3, §4, §6, §8

[7] = biological target: T1, LGC-51/52; test: Two-electrode voltage clamp, antagonist inhibitory dose response in Xenopus oocytes expressing LGC-51/52
Description: as §7, §2
5'-capped cRNA was synthesized in vitro using the T3 mMessage mMachine transcription kit according to manufacturer’s protocol (Thermo Fischer Scientific, CA, USA). […]
(§9) Two-electrode voltage clamp recordings were carried out using the Robocyte2 recording system or a manual TEVC set up, using an OC-725D amplifier (Multi Channel Systems, Reutlingen, Germany) and paired with a custom-made recording chamber and agar bridges from reference and bath electrodes. […] Data was recorded using WinWCP or RoboCyte2 control software, manual data was filtered at 10 Hz.
Dose response curves were calculated from the peak current during a 10 s agonist stimulation in ND96 solution, with a 60 s ND96 wash in between doses. […] Normalized dose response data was fitted to a nonlinear curve using a four parameters variable slope and the EC50 and Hill slope was calculated. […] Kinetic measurements were calculated from a 60 s agonist perfusion. […]

[8] = biological target: T4, LGC-50 (Caenorhabditis elegans, UniProt P41849); test: Two-electrode voltage clamp, agonist-evoked currents in Xenopus oocytes expressing LGC-50; details: ligands screened at 100 μM, oocytes clamped at −60 mV
T4 construct: lgc-50 ORF F […]; expressed in transfected cells; host or cells: Xenopus laevis oocytes injected with cRNA (plasmid pJML002, KSM: lgc-50 cDNA)
T4 sequence (P41849 20-491): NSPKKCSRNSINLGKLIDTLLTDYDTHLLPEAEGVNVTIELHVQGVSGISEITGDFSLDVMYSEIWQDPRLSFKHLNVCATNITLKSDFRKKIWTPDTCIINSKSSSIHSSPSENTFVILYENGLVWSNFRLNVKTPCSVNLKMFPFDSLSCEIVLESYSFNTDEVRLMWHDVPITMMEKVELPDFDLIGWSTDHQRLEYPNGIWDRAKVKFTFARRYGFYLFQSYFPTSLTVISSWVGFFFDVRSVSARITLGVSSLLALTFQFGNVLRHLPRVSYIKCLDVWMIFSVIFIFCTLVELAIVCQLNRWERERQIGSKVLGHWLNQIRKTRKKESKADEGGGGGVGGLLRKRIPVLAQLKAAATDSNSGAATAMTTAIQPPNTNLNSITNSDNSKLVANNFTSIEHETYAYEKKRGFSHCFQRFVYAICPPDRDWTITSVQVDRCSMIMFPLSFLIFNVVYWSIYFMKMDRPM
From the text: as §1, §2
5'-capped cRNA was synthesized in vitro using the T3 mMessage mMachine transcription kit according to manufacturer’s protocol (Thermo Fischer Scientific, CA, USA). RNA was then purified using the GeneJET RNA purification kit (Thermo Fischer Scientific, CA, USA) prior to cRNA injection. […]
as §9
Dose response curves were calculated from the peak current during a 10 s agonist stimulation in ND96 solution, with a 60 s ND96 wash in between doses. […] Normalized dose response data was fitted to a nonlinear curve using a four parameters variable slope and the EC50 and Hill slope was calculated. […] Ion selectivity was determined using a voltage ramp protocol of 20mV/s ranging from −80mV to +60mV in the presence or absence of the primary agonist in three different solutions: ND96, NMDG (Na^+ free) and Na Gluconate (low Cl^-) solutions. […] Antagonist dose response curves were calculated from the peak current during a 10 s agonist + antagonist stimulation in ND96 solution, with the agonist concentration remaining constant. […] Kinetic measurements were calculated from a 60 s agonist perfusion. […]

## NCCc1ccc(O)c(O)c1 [dopamine]
[1]
  EC50: 0.51 µM
  Channel activation in ligand screen, LGC-52: activated
[1]; ratio of EC50 values
  EC50 lower for dopamine than tyramine, LGC-52: 100 fold
[2]
  Agonist-induced peak current of LGC-51/52 heteromer compared with LGC-52: no significant effect
  EC50: 0.81 µM
[3]
  EC50: 642 µM
  Channel activation in ligand screen, LGC-56: activated
[4]
  EC50: 18 µM
  Channel activation in ligand screen, LGC-54: activated

## CNC1(C)C2CCC(C2)C1(C)C (stereo not drawn) [mecamylamine]
[5]
  IC50: 1 µM
  Block of LGC-56 currents by antagonist: partially blocked
[6]
  IC50: 114 µM and > 100 µM
  Block of LGC-54 currents by antagonist: only a partial block

## O=C(CCCN1CCC2(CC1)C(=O)NCN2c1ccccc1)c1ccc(F)cc1 [Spiperone, spiperone]
[5]
  IC50: 127 µM
  Block of LGC-56 currents by antagonist: partial block
[7]; Xenopus oocytes, TEVC, agonist constant at its EC50, Hill equation, three-parameter slope
  IC50: 170 µM
[7]; agonist at EC50
  Block of LGC-51/52 currents by antagonist: partial block
[6]
  IC50: 81 µM
  Block of LGC-54 currents by antagonist: partial block

## NCCc1ccc(O)cc1 [tyramine]
[1]
  EC50: 54 µM
  Channel activation in ligand screen, LGC-52: activated
[2]
  Agonist-induced peak current of LGC-51/52 heteromer compared with LGC-52: significantly higher
  EC50: 4 µM
[3]
  EC50: 70 µM
  Channel activation in ligand screen, LGC-56: activated
[4]
  EC50: 13 µM
  Channel activation in ligand screen, LGC-54: activated

## NCC(O)c1ccc(O)cc1 (stereo not drawn) [octopamine]
[3]; 1 mM
  Response of LGC-56 at very high concentration: small response

## picrotoxin
[5]
  IC50: 59 µM
  Block of LGC-56 currents by antagonist: large inhibition of currents
[6]
  IC50: 43 µM
  Block of LGC-54 currents by antagonist: large inhibition of currents

## NCCc1c[nH]c2ccccc12 [tryptamine]
[8]
  Channel gating in ligand screen, LGC-50: gated

— publication PMC8536830 (Current Biology, 2021)
